Patent publication US20230131899A1, “INHIBITORS OF MICROBIALLY INDUCED AMYLOID” (Axial Therapeutics, Inc., priority 2020, published 2023)
Like-named read-outs stand apart in the source and are kept apart here.

Target: T1, E. coli CsgA (Escherichia coli, UniProt P28307)
T1 construct: made in house; host or cells: E. coli NEB 3016 slyD::kan, pET11d
Test: In vitro ThioflavinT assay of CsgA aggregation (CsgA ThT Assay)
Assay type: biochemical
Details: for remaining activity at 25 µM: compound 25 μM; for remaining activity at 100 µM: compound 100 μM
Description: In vitro ThioflavinT assay to determine effects of compounds on CsgA aggregation. To assess the effects of compounds on aggregation of E. coli CsgA, a cell-free assay was performed using purified CsgA and Thioflavin T. In the assay, histidine-tagged CsgA was over-expressed in E. coli NEB 3016 slyD::kan cells harboring a pET11d vector containing a C-terminal 6× His tag. Following growth in rich media, CsgA production is induced at an OD600 of approximately 1.0 by addition of 0.5 mM IPTG (isopropyl beta-D-1-thiogalactopyranoside) followed by incubation at 37° C. for 1-4 hours with shaking at 200-250 rpm. Bacteria were resuspended in 8 M guanidine hydrochloride in 50 mM potassium phosphate buffer, pH 7.3 and lysed by sonication on ice using three 20 second intervals. The resulting lysate was incubated on a platform rocker for 1 hour at room temperature. After centrifugation at 10,000×g for 20 minutes, the supernatant was further sonicated on ice for three 20 second intervals and then incubated with nickel-nitrilotriacetic acid resin (Sigma) at room temperature for 1 hour in a 50 mL conical tube on a platform rocker. The resin was washed and pelleted 5 times with 45 mL 8 M guanidine in 50 mM potassium phosphate buffer pH 7.3. The resin was further washed and pelleted two times with 8 M guanidine hydrochloride in 50 mM potassium phosphate buffer pH 7.3 containing 12.5 mM imidazole. Purified CsgA protein was eluted two times with 5 mL of 6-8 M guanidine hydrochloride in 50 mM potassium phosphate buffer, pH 7.3 containing 250 mM imidazole. The eluted protein was aliquoted with 150 μL per aliquot, snap frozen in liquid nitrogen, and stored at −80 C. In order to obtain monomeric CsgA, the purified CsgA protein was thawed and passed through two pre-chilled desalting columns (Zeba) to remove imidazole and guanidine. The buffer exchanged protein was loaded onto a 30-kDa centrifugal filter unit (Amicon) and spun for 30 minutes at 7500×g to remove dimers and other oligomers. Protein concentration was assessed by the NanoDrop technique (Thermo Scientific), as is familiar to one skilled in the art. The CsgA aggregation assay was conducted in 96-well black non-binding surface or white untreated microplates with 20-40 μM ThioflavinT, 50 mM potassium phosphate buffer pH 7.3, 1% DMSO, CsgA at 2-20 μM, and compounds at 3.125-200 uM. The vehicle control wells contain all components of the assay except test compounds and represent the level of CsgA aggregation in the absence of any inhibitor or accelerator. Plates were incubated at room temperature in a Tecan Nano F200 plate reader with excitation at 438 nm using a 439 nm filter with a bandwidth of 8 nm, and emission at 495 nm with a 490 nm filter with a bandwidth of 10 nm, or in a SpectraMax M5, SpectraMax M2 or SpectraMax® i3X (Molecular Devices, San Jose, Calif.) spectrophotometer with excitation at 438 nm and emission at 495 nm. During the assay, plates were shaken initially for 5 seconds and subsequently for 3 seconds prior to fluorescent readings. Readings were performed every 15 minutes for up to 1005 minutes. The effect of compounds on CsgA aggregation in the assay was determined with data from 0-17 hours. Fluorescence values for each compound with CsgA were first adjusted by subtracting the average fluorescence of the compound in the absence of CsgA or in the presence of CsgA and compound at time 0 or 15 minutes. The data were analyzed in several ways:
1. The adjusted ThT fluorescence values were normalized by dividing them by the average fluorescence in the vehicle control wells containing CsgA. The median normalized fluorescence from 6-6.5 hours or 8-9 hours with the compound was expressed as a percentage of the median fluorescence observed in vehicle controls over the same time period. Percent inhibition of CsgA aggregation by a compound was determined by subtracting the percent average fluorescence with the compound relative to the vehicle controls from 100%. […]

[1] = read-out: CsgA ThT Assay (10 μM CsgA) % Control AUC at 1005 minutes, 25 μM (activity range), CsgA 10 μM, black plates, 1005 minutes, class symbol
[2] = read-out: CsgA ThT Assay (10 μM CsgA) % Control AUC at 1005 minutes, 25 μM, mean AUC as % of DMSO control, CsgA 10 μM, black plates, 1005 minutes
[3] = read-out: CsgA ThT Assay (10 μM CsgA) % Control AUC at 1005 minutes, 100 μM (activity range), CsgA 10 μM, black plates, 1005 minutes, class symbol
[4] = read-out: CsgA ThT Assay (10 μM CsgA) % Control AUC at 1005 minutes, 100 μM, mean AUC as % of DMSO control, CsgA 10 μM, black plates, 1005 minutes
[5] = read-out: CsgA ThT Assay (2 μM CsgA) % Control Bmax 25 μM, activity range, class symbol, CsgA 2 μM, white plates
[6] = read-out: CsgA ThT Assay (2 μM CsgA) % Control Bmax 25 μM, mean Bmax as percentage of DMSO control, CsgA 2 μM, white plates
[7] = read-out: CsgA ThT Assay (2 μM CsgA) % Control Bmax 100 μM, activity range, class symbol, CsgA 2 μM, white plates
[8] = read-out: CsgA ThT Assay (2 μM CsgA) % Control Bmax 100 μM, mean Bmax as percentage of DMSO control, CsgA 2 μM, white plates

T1 sequence (P28307 23-151): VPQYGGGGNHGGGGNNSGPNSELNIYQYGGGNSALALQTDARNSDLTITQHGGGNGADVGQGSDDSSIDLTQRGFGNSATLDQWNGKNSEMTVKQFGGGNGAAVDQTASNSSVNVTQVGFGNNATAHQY

Row | SMILES | remaining activity at 25 µM [1] | remaining activity at 25 µM [2] | remaining activity at 100 µM [3] | remaining activity at 100 µM [4] | remaining activity at 25 µM [5] | remaining activity at 25 µM [6] | remaining activity at 100 µM [7] | remaining activity at 100 µM [8]
1 | Cn1cc(C(=O)O)n2c(=O)cc(Cc3cccc4ccccc34)c(-c3cccc(C(F)(F)F)c3)c12 [Compound 111, 1-methyl-7-(naphthalen-1-ylmethyl)-5-oxo-8-(3-(trifluoromethyl)phenyl)-1,5-dihydroimidazo[1,2-a]pyridine-3-carboxylic acid] | > 60% | 98% | > 60% | 95% |  |  |  | 
2 | CCCN1CC(C(=O)O)n2c(c(-c3cccc(C(F)(F)F)c3)c(Cc3cccc4ccccc34)c(OC(C)C)c2=O)S1(=O)=O (centres unmarked) [Compound 148, 7-isopropoxy-8-(naphthalen-1-ylmethyl)-6-oxo-2-propyl-9-(3-(trifluoromethyl)phenyl)-3,4-dihydro-2H,6H-pyrido[1,2-e][1,2,5]thiadiazine-4-carboxylic acid 1,1-dioxide] |  |  |  |  | > 60% | 79% | > 60% | 113%
3 | CCc1c(Cc2cccc3ccccc23)c(-c2cccc(C(F)(F)F)c2)c2n(c1=O)C(C(=O)O)CN(C)S2(=O)=O (centres unmarked) [Compound 076, 7-ethyl-2-methyl-8-(naphthalen-1-ylmethyl)-6-oxo-9-(3-(trifluoromethyl)phenyl)-3,4-dihydro-2H,6H-pyrido[1,2-e][1,2,5]thiadiazine-4-carboxylic acid 1,1-dioxide] | 11 to 31% | 17% | 11 to 31% | 14% |  |  |  | 
4 | O=C(O)[C@H]1CNS(=O)(=O)c2c(-c3cccc(C(F)(F)F)c3)c(Cc3cccc4ccccc34)cc(=O)n21 (single isomer, unassigned) [Compound 009b] | > 60% | 67% | 31 to 60% | 37% |  |  |  | 
5 | O=C(O)CCCCN1CC(C(=O)O)n2c(c(-c3cccc(C(F)(F)F)c3)c(Cc3cccc4ccccc34)cc2=O)S1(=O)=O (centres unmarked) [Compound 039, 2-(4-carboxybutyl)-8-(naphthalen-1-ylmethyl)-6-oxo-9-(3-(trifluoromethyl)phenyl)-3,4-dihydro-2H,6H-pyrido[1,2-e][1,2,5]thiadiazine-4-carboxylic acid 1,1-dioxide] | > 60% | 92% | 11 to 31% | 24% |  |  |  | 
6 | CCCN1CC(C(=O)O)n2c(c(-c3cccc(C(F)(F)F)c3)c(Cc3cccc4ccccc34)c(OCc3ccccc3)c2=O)S1(=O)=O (centres unmarked) [Compound 146, 7-(benzyloxy)-8-(naphthalen-1-ylmethyl)-6-oxo-2-propyl-9-(3-(trifluoromethyl)phenyl)-3,4-dihydro-2H,6H-pyrido[1,2-e][1,2,5]thiadiazine-4-carboxylic acid 1,1-dioxide] |  |  |  |  | > 60% | 113% | > 60% | 63%
7 | CCCN1CC(C(=O)O)n2c(c(-c3cccc(C(F)(F)F)c3)c(Cc3cccc4ccccc34)c(NC(C)C)c2=O)S1(=O)=O (centres unmarked) [Compound 149, 7-(isopropylamino)-8-(naphthalen-1-ylmethyl)-6-oxo-2-propyl-9-(3-(trifluoromethyl)phenyl)-3,4-dihydro-2H,6H-pyrido[1,2-e][1,2,5]thiadiazine-4-carboxylic acid 1,1-dioxide] |  |  |  |  | > 60% | 98% | > 60% | 115%
8 | O=C(O)C1CN(Cc2ccccc2)c2c(-c3cccc(C(F)(F)F)c3)c(CN3CCCCC3)c(Cl)c(=O)n21 (centres unmarked) [Compound 218, 1-benzyl-6-chloro-5-oxo-7-(piperidin-1-ylmethyl)-8-(3-(trifluoromethyl)phenyl)-1,2,3,5-tetrahydroimidazo[1,2-a]pyridine-3-carboxylic acid] |  |  |  |  | > 60% | 115% | > 60% | 109%
9 | O=C(O)[C@@H]1CNS(=O)(=O)c2c(-c3cccc(C(F)(F)F)c3)c(Cc3cccc4ccccc34)cc(=O)n21 (single isomer, unassigned) [Compound 009a] | 31 to 60% | 46% | 11 to 31% | 17% |  |  |  | 
10 | O=C(O)C1CN(C(=O)OCc2ccccc2)c2c(-c3cccc(C(F)(F)F)c3)c(Cc3cccc4ccccc34)cc(=O)n21 (centres unmarked) [Compound 103, 1-((benzyloxy)carbonyl)-7-(naphthalen-1-ylmethyl)-5-oxo-8-(3-(trifluoromethyl)phenyl)-1,2,3,5-tetrahydroimidazo[1,2-a]pyridine-3-carboxylic acid] | > 60% | 95% | > 60% | 102% |  |  |  | 
11 | CCCOc1c(Cc2cccc3ccccc23)c(-c2cccc(C(F)(F)F)c2)c2n(c1=O)C(C(=O)O)CN(CCC)S2(=O)=O (centres unmarked) [Compound 147, 8-(naphthalen-1-ylmethyl)-6-oxo-7-propoxy-2-propyl-9-(3-(trifluoromethyl)phenyl)-3,4-dihydro-2H,6H-pyrido[1,2-e][1,2,5]thiadiazine-4-carboxylic acid 1,1-dioxide] |  |  |  |  | > 60% | 101% | > 60% | 139%
